# Laboratory results published in patent publication US9175003B2, “Substituted azoanthracene derivatives and intermediates for preparation thereof” (TransTech Pharma, LLC, priority 2009, dated 2015).
# pEC50: −log10 of the molar value.
# Target: human GLP-1 receptor (Homo sapiens (Human), UniProt P43220)
# Details: read-out: Mean EC50; cAMP, HTRF detection, 30 min at 37° C., HEK-293 cells expressing cloned human GLP-1 receptor
# human GLP-1 receptor, sequence (P43220 24-463): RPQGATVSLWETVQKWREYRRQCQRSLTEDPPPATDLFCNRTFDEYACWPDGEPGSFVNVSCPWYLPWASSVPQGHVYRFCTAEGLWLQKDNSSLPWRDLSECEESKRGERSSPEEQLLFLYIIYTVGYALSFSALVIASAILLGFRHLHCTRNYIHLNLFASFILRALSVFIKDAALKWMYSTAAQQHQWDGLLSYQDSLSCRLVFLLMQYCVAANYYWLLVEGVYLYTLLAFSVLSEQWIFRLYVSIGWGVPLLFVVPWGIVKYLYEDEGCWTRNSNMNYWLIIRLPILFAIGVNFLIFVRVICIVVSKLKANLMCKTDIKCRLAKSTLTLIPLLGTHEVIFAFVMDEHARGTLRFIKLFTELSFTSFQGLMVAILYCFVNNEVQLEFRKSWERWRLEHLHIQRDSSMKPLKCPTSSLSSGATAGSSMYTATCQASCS
row,SMILES,pEC50
1,"CNc1nc(C)c(S(=O)(=O)N2Cc3cc4c(cc3C[C@H]2C(=O)N[C@@H](Cc2ccc(-c3ccc(C#N)cc3)cc2)C(=O)O)OC[C@@H](c2ccc(OCc3ccc(Cl)c(Cl)c3)cc2)O4)s1 [Example 61, (S)-3-(4′-Cyano-biphenyl-4-yl)-2-{[(3R,8S)-3-[4-(3,4-dichloro-benzyloxy)-phenyl]-7-(4-methyl-2-methylamino-thiazole-5-sulfonyl)-2,3,6,7,8,9-hexahydro-[1,4]dioxino[2,3-g]isoquinoline-8-carbonyl]-amino}-propionic acid]",7.14
2,"CCNc1nc(C)c(S(=O)(=O)N2Cc3cc4c(cc3C[C@H]2C(=O)N[C@@H](Cc2ccc(-c3ccc(C#N)cc3)cc2)C(=O)O)OC[C@@H](c2ccc(OCc3ccc(Cl)c(Cl)c3)cc2)O4)s1 [Example 62, (S)-3-(4′-Cyano-biphenyl-4-yl)-2-{[(3R,8S)-3-[4-(3,4-dichloro-benzyloxy)-phenyl]-7-(2-ethylamino-4-methyl-thiazole-5-sulfonyl)-2,3,6,7,8,9-hexahydro-[1,4]dioxino[2,3-g]isoquinoline-8-carbonyl]-amino}-propionic acid]",6.48
3,Cc1nc(NC(=O)[C@@H]2CCCN2)sc1S(=O)(=O)N1Cc2cc3c(cc2C[C@H]1C(=O)N[C@@H](Cc1ccc(-c2ccc(C#N)cc2)cc1)C(=O)O)OCC(c1ccc(OCc2ccc(Cl)c(Cl)c2)cc1)O3 (some centres unmarked) [Example 71],6.32
4,"CC[C@@H](c1ccccc1)N1Cc2cc3c(cc2C[C@H]1C(=O)N[C@@H](Cc1ccc(-c2ccc(C#N)cc2)cc1)C(=O)O)OC[C@H](c1ccc(OCc2ccc(Cl)c(Cl)c2)cc1)O3 [Example 72, (S)-3-(4′-Cyano-biphenyl-4-yl)-2-{[(3S,8S)-3-[4-(3,4-dichloro-benzyloxy)-phenyl]-7-((S)-1-phenyl-propyl)-2,3,6,7,8,9-hexahydro-[1,4]dioxino[2,3-g]isoquinoline-8-carbonyl]-amino}-propionic acid]",6.32
5,"CC[C@@H](c1ccccc1)N1Cc2cc3c(cc2C[C@H]1C(=O)N[C@@H](Cc1ccc(-c2ccncc2)cc1)C(=O)O)OC[C@H](c1ccc(OCc2ccc(Cl)c(Cl)c2)cc1)O3 [Example 73, (S)-2-{[(3S,8S)-3-[4-(3,4-Dichloro-benzyloxy)-phenyl]-7-((S)-1-phenyl-propyl)-2,3,6,7,8,9-hexahydro-[1,4]dioxino[2,3-g]isoquinoline-8-carbonyl]-amino}-3-(4-pyridin-4-yl-phenyl)-propionic acid]",7.12
6,"Cc1nc(N)sc1S(=O)(=O)N1Cc2cc3c(cc2C[C@H]1C(=O)N[C@@H](Cc1ccc(-c2ccc(C#N)cc2)cc1)C(=O)O)OC[C@H](c1ccc(OCc2ccc(Cl)c(Cl)c2)cc1)O3 [Example 81, (S)-2-({(3S,8S)-7-(2-Amino-4-methyl-thiazole-5-sulfonyl)-3-[4-(3,4-dichloro-benzyloxy)-phenyl]-2,3,6,7,8,9-hexahydro-[1,4]dioxino[2,3-g]isoquinoline-8-carbonyl}-amino)-3-(4′-cyano-biphenyl-4-yl)-propionic acid]",6.49
7,"CNc1nc(C)c(S(=O)(=O)N2Cc3cc4c(cc3C[C@H]2C(=O)N[C@@H](Cc2ccc(-c3ccc(C#N)cc3)cc2)C(=O)O)OC[C@H](c2ccc(OCc3ccc(Cl)c(Cl)c3)cc2)O4)s1 [Example 85, (S)-3-(4′-Cyano-biphenyl-4-yl)-2-{[(3S,8S)-3-[4-(3,4-dichloro-benzyloxy)-phenyl]-7-(4-methyl-2-methylamino-thiazole-5-sulfonyl)-2,3,6,7,8,9-hexahydro-[1,4]dioxino[2,3-g]isoquinoline-8-carbonyl]-amino}-propionic acid]",6.58
8,"CCNc1nc(C)c(S(=O)(=O)N2Cc3cc4c(cc3C[C@H]2C(=O)N[C@@H](Cc2ccc(-c3ccc(C#N)cc3)cc2)C(=O)O)OC[C@H](c2ccc(OCc3ccc(Cl)c(Cl)c3)cc2)O4)s1 [Example 86, (S)-3-(4′-Cyano-biphenyl-4-yl)-2-{[(3S,8S)-3-[4-(3,4-dichloro-benzyloxy)-phenyl]-7-(2-ethylamino-4-methyl-thiazole-5-sulfonyl)-2,3,6,7,8,9-hexahydro-[1,4]dioxino[2,3-g]isoquinoline-8-carbonyl]-amino}-propionic acid]",6.60
